From patent US20070213359A1 (ACADIA Pharmaceuticals Inc., priority 2005, published 2007)
pKi: −log10 of the molar value. Like-named read-outs stand apart in the source and are kept apart here.

Key:
GHSR1a receptor = biological target: T1, GHSR1a receptor (Homo sapiens, UniProt Q92847); assay: 125I-Ghrelin binding assay; conditions: displacement of 125I-ghrelin (0.053 nM), membranes of HEK293 cells transfected with GHSR1a, Cheng-Prussoff, '—' not defined; for Ki: read-out: Binding pKi (converted); for pKi: Binding pKi
T1 construct: expressed in transfected cells; host or cells: HEK293 (membranes)
Procedure: Plasmid DNA containing the GHSR1a receptor (12.5 ug/dish) in 0.675 ml DMEM was transfected into the cells by mixing with 180 ul PolyFect, 15 min later mixing in 2.25 ml 10% CS/DMEM, and transferring the mixture into the dish. At 16-18 h post transfection, medium was replaced with 25 ml fresh 10% FCS/1% PSG/DMEM to each dish for another 18-20 h. At approximately 48 hours post-transfection, cells were harvested in ice-cold membrane buffer (20 mM HEPES, 6 mM MgCl2, 1 mM EDTA, pH to 7.2) using a cell scraper, and pelleted by centrifugation.
Pelleted cells were added to a nitrogen cavitation chamber and 900 bar of pressure applied for 30 min. The pressure was slowly released the cavitated cells collected in 50 ml falcon tubes. The tubes were centrifuged at 1000 rpm, 4° C. for 10 min, and the supernatant collected. This centrifugation and collection was repeated two more times until the supernatant was free of precipitate (membranes are still in suspension). The supernatant was poured into a 50 ml centrifuge tube and centrifuged at 10.000 rpm, 4° C. for 20 min. The supernatant was discarded and the pellet re-suspended in 750 μl membrane binding buffer using a chilled 1 ml syringe with 25G5/8 needle to re-suspend membranes. The protein concentration was determined using the BioRad Protein Assay Dye Reagent according to the manufacturers instructions. The protein concentration was adjusted to 5 mg/ml and aliquots snap-frozed and stored at −80 C until use.
Membranes were thawed rapidly; diluted with binding buffer (25 mM Hepes+5 mM MgCl2, 1 mM CaCl2, 2.5 mM EDTA and 0.2% BSA) to a protein concentration of 0.8 ug/30 ul and placed on ice. 96-well plates (U-bottom wells) were prepared with serial dilutions (8 doses, 40 ul/w) of the test compounds. Membranes (30 uL/well) were then added, and incubated with test ligands for 30 min at room temperature with shaking. […] Binding was terminated by filtration through GF/B filters (presoaked with 0.1% polyethylenimine) with a Brandel 96-well harvester. The filters were washed with ice-cold binding buffer (150 ml/plate) and allowed to air-dry for 30 min. 50 ul MicroScient-20 cocktail was added to each dried well, the plates were sealed, and counted for 2 min/well using a TopCount scintillation counter (Packard).

Ghrelin receptor = Ghrelin receptor (Homo sapiens, UniProt Q92847); assay: Receptor Selection and Amplification Technology (R-SAT) assay; type: cell-based; parameters: expressed in transfected cells; host or cells: NIH3T3; conditions: for IC50: '—' not defined (nd used separately), read-out: RSAT pIC50 (converted); for Emax: read-out: RSAT Eff(%)
[1] = negative logarithm of ligand concentration causing 50% inhibition of constitutive receptor response, transfected NIH3T3 cells
[2] = percent inhibition at saturating ligand, normalized to reference ligand Substance P analog = 100%

Ghrelin receptor, sequence (Q92847 whole entry): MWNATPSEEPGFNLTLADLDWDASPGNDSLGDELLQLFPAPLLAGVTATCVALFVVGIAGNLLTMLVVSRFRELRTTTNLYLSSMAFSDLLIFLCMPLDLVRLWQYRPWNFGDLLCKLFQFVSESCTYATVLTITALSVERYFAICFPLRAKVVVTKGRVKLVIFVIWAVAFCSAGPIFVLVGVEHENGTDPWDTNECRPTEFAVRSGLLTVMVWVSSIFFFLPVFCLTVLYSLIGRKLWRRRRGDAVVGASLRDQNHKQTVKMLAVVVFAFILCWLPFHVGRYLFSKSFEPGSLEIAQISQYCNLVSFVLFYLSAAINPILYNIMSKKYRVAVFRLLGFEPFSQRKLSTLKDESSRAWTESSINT
T1 sequence (Q92847 whole entry): as above

| SMILES | Ki (GHSR1a receptor) [µM] | IC50 (Ghrelin receptor; [1]) [µM] | RSAT Eff(%) (Ghrelin receptor; [2]) | pKi (GHSR1a receptor) | IC50 (Ghrelin receptor; […]) [µM] | Emax (Ghrelin receptor) [%] | Emax (Ghrelin receptor; [2]) [%] |
| --- | --- | --- | --- | --- | --- | --- | --- |
| COc1cccc2c(C(C)=O)cn(CCCN3CCCN(Cc4ccccc4Cl)CC3)c12 | 0.01 | 0.000251 | 128 |  |  |  |  |
| COc1cccc2c(C(=O)C3CC3)cn(CCCN3CCCN(Cc4ccc(F)cc4)CC3)c12 |  |  |  | 8.10 | 0.00126 | 92 |  |
| COc1cccc2c(C(=O)NCc3cccc(C)c3)cn(CCCN3C4CCC3CC(CC(=O)c3ccccc3)C4)c12 (stereo not drawn) |  |  |  | 8.70 | 0.00158 | 106 |  |
| CCCCC[C@H]1C[C@H]2CC[C@@H](C1)N2CCCn1cc(C(=O)NCc2cccc(C)c2)c2cccc(OC)c21 |  |  |  | 7.30 | 0.002 | 90 |  |
| COc1cccc2c(C(=O)NCc3cccc(C)c3)cn(CCCN3CCC(c4nc5ccccc5s4)CC3)c12 |  |  |  | 7.20 | 0.00251 | 94 |  |
| COc1cccc2c(C(=O)NCc3cccc(C)c3)cn(CCCN3CCC(Oc4ccc(F)cc4)CC3)c12 |  |  |  | 7.00 | 0.00316 | 81 |  |
| COc1cccc2c(C(=O)C3CC3)cn(CCCN3C4CCC3CC(CCc3ccc(Cl)cc3)C4)c12 (stereo not drawn) |  |  |  | 7.70 | 0.00398 | 103 |  |
| COc1cccc2c(C(=O)C3CC3)cn(CCCN3C4CCC3CC(Oc3ccc(Cl)cc3)C4)c12 (stereo not drawn) |  |  |  | 6.80 | 0.00398 | 86 |  |
| CC(=O)c1cn(CCCN2CCCN(CCc3ccccc3)CC2)c2c(Br)cccc12 |  |  |  | 7.10 | 0.00398 | 98 |  |
| CCc1cccc2c(C(C)=O)cn(CCCN3C4CCC3CC(CCc3ccccc3)C4)c12 (stereo not drawn) | 0.126 | 0.00398 |  |  |  | 103 |  |
| CC(=O)c1cn(CCCN2CCC(Oc3ccc(Cl)cc3)CC2)c2c(Br)cccc12 | 0.1 | 0.00398 |  |  |  |  | 105 |
| COc1cccc2c(C(=O)NCc3cccc(Cl)c3)cn(CCCN3C4CCC3CC(Oc3ccccc3Cl)C4)c12 (stereo not drawn) | 0.02 | 0.00398 | 99 |  |  |  |  |
| CC(=O)c1cn(CCCN2C3CCC2CC(Oc2ccc(Cl)cc2)C3)c2c(C)cccc12 (stereo not drawn) | 0.126 | 0.00501 |  |  |  |  | 99 |
| CC(=O)c1cn(CCCN2CCC(Oc3ccc(F)cc3)CC2)c2c(C)cccc12 | 0.2 | 0.00501 |  |  |  |  | 72 |
| CC(=O)c1cn(CCCN2CCCN(Cc3ccccc3Cl)CC2)c2c(Br)cccc12 | 0.01 | 0.00501 |  |  |  |  | 95 |
| COc1cccc2c(C(=O)NCc3cccc(C)c3)cn(CCCN3C4CCC3CC(Oc3ccccc3Cl)C4)c12 (stereo not drawn) | 0.02 | 0.00501 | 121 |  |  |  |  |
| COc1cccc2c(C(=O)C3CC3)cn(CCCN3CCN(CCOc4ccc(Cl)cc4)CC3)c12 |  |  |  | 6.90 | 0.02 | 122 |  |
| COc1cccc2c(C(=O)NCc3cccc(C)c3)cn(CCCN3CCN(CCOc4ccccc4)CC3)c12 |  |  |  | 8.10 | 0.02 | 89 |  |
| COc1cccc2c(C(=O)NCC(C)C)cn(CCCN3CCCN(Cc4ccc(F)cc4)CC3)c12 |  |  |  | 7.00 | 0.0251 | 118 |  |
| COc1cccc2c(C(=O)NCc3cccc(C)c3)cn(CCCN3CCN(Cc4ccc(Cl)cc4Cl)CC3)c12 |  |  |  | 6.00 | 0.0251 | 110 |  |
| COc1cccc2c(C(=O)Cc3ccccc3)cn(CCCN3CCC(CCOc4ccc(Cl)cc4)CC3)c12 |  |  |  | 6.60 | 0.0251 | 121 |  |
| CCCCCC1CC2CCC(C1)N2CCCn1cc(C(C)=O)c2ccccc21 (stereo not drawn) |  |  |  | 5.80 | 0.0316 | 104 |  |
| COc1cccc2c(C(=O)NCc3cccc(Cl)c3)cn(CCCN3C4CCC3CC(Oc3ccc(F)cc3)C4)c12 (stereo not drawn) |  |  |  | 6.80 | 0.0398 | 152 |  |
| COc1ccc2[nH]c3c(c2c1)CCN(CCCn1cc(C(C)=O)c2cccc(OC)c21)C3 |  |  |  | 6.00 | 0.0501 |  | 123 |
| COc1cccc2c(C(C)=O)cn(CCCN3C4CCC3CC(OCC3CC3)C4)c12 (stereo not drawn) |  |  |  | 5.80 | 0.0501 | 113 |  |

| SMILES | Ki (GHSR1a receptor) [µM] | IC50 (Ghrelin receptor; [1]) [µM] | RSAT Eff(%) (Ghrelin receptor; [2]) | pKi (GHSR1a receptor) | IC50 (Ghrelin receptor; […]) [µM] | Emax (Ghrelin receptor) [%] | Emax (Ghrelin receptor; [2]) [%] |
| --- | --- | --- | --- | --- | --- | --- | --- |
| COc1cccc2c(C(=O)C3CC3)cn(CCCN3CCC(Oc4ccccc4Cl)CC3)c12 |  |  |  | 5.50 | 0.0501 | 102 |  |
| COc1cccc2c(C(=O)NCc3cccc(Cl)c3)cn(CCCN3CCC(Oc4ccc(Cl)cc4)CC3)c12 |  |  |  | 6.20 | 0.0501 | 123 |  |
| CCCCC[C@H]1C[C@H]2CC[C@@H](C1)N2CCCn1cc(C(=O)NCc2cccc(Cl)c2)c2cccc(OC)c21 |  |  |  | 6.70 | 0.0501 | 123 |  |
| COc1cccc2c(C(=O)NCc3cccc(Cl)c3)cn(CCCN3[C@@H]4CC[C@H]3C[C@@H](CC(=O)c3ccccc3)C4)c12 |  |  |  | 7.20 | 0.0501 | 111 |  |
| COc1cccc2c(C(=O)NCc3cccc(Cl)c3)cn(CCCN3CCN(CCOc4ccccc4)CC3)c12 |  |  |  | 8.20 | 0.0794 | 101 |  |
| COc1cccc2c(C(=O)NCc3cccc(C)c3)cn(CCCN3CCC(c4nc(-c5cccnc5)no4)CC3)c12 |  |  |  | 6.80 | 0.0794 | 97 |  |
| COc1cccc2c(C(=O)NCc3cccc(Cl)c3)cn(CCCN3CCC(c4nc5ccccc5s4)CC3)c12 |  |  |  | 6.60 | 0.0794 | 112 |  |
| COc1cccc2c(C(=O)NCc3cccc(Cl)c3)cn(CCCN3C4CCC3CC(CC(=O)c3ccccc3)C4)c12 (stereo not drawn) |  |  |  | 6.70 | 0.0794 | 104 |  |
| COc1cccc2c(C(=O)NCC(C)C)cn(CCCN3CCCN(CCc4ccccc4)CC3)c12 |  |  |  | 6.10 | 0.1 | 114 |  |
| CCCCC[C@H]1C[C@H]2CC[C@@H](C1)N2CCCn1cc(C(C)=O)c2ccccc21 |  |  |  | 5.60 | 0.1 | 118 |  |
| CCCOC1CCN(CCCn2cc(C(=O)CC)c3cc(Br)ccc32)CC1 |  |  |  | 5.00 | 0.158 | 90 |  |
| COc1cccc2c(C(=O)NCc3cccc(Cl)c3)cn(CCCNCCOc3ccccc3)c12 |  |  |  | 7.40 | 0.251 | 120 |  |
| COc1cccc2c(C(=O)NCc3cccc(Cl)c3)cn(CCCN3CCN(CCOc4ccc(Cl)cc4)CC3)c12 |  |  |  | 7.80 | 0.251 | 104 |  |
| Cc1cccc(CNC(=O)c2cn(CCCN3C4CCC3CC(CCc3ccccc3)C4)c3ccccc23)c1 (stereo not drawn) |  |  |  | 6.20 | 0.316 | 108 |  |
| CC(=O)c1cn(CCCN2[C@@H]3CC[C@H]2C[C@@H](Oc2ccc(Cl)cc2)C3)c2ccccc12 |  |  |  | 5.10 | 0.398 | 107 |  |
| COc1cccc2c(C(=O)NCc3cccc(C)c3)cn(CCCNC3Cc4ccccc4C3)c12 |  |  |  | 7.10 | 0.398 | 84 |  |
| COc1cccc2c(C(=O)NCc3cccc(C)c3)cn(CCCN3CCN(CCOc4ccc(Cl)cc4)CC3)c12 |  |  |  | 6.90 | 0.501 | 79 |  |
| COc1cccc2c(C(=O)NCc3cccc(Cl)c3)cn(CCCNC3Cc4ccccc4C3)c12 |  |  |  | 7.20 | 0.794 | 133 |  |
| COc1cccc2c(C(=O)c3ccccc3)cn(CCCN3CCN(CCOc4ccc(Cl)cc4)CC3)c12 |  |  |  | 6.90 | 1 | 66 |  |
| COc1cccc2c(C(=O)NCc3cccc(C)c3)cn(CCCNCCOc3ccccc3)c12 |  |  |  | 7.00 |  | 52 |  |
| COc1cccc2c(C(=O)NCC(C)C)cn(CCCN3CCC(CCOc4ccc(Cl)cc4)CC3)c12 |  |  |  | 6.80 |  | 45 |  |
| COc1cccc2c(C(=O)NCc3cccc(Cl)c3)cn(CCCN3CCC(CCOc4ccc(Cl)cc4)CC3)c12 |  |  |  | 6.60 |  | 46 |  |
| CC(=O)c1c(C)n(CCCN2CCC(Oc3cccc(Cl)c3)CC2)c2c(Br)cccc12 | 0.631 |  |  |  |  |  | 35 |
| CC(=O)c1cn(CCCN2CCCC(Cc3ccccc3Cl)C2)c2c(C#N)cccc12 (stereo not drawn) | 0.794 |  |  |  |  |  | 22 |
| CC(=O)c1c(C)n(CCCN2C3CCC2CC(Oc2ccc(F)cc2)C3)c2c(Br)cccc12 (stereo not drawn) | 1.58 |  |  |  |  |  | 1 |
